Values joined by “and” are separate entries in the source; they are usually repeats but may differ in a detail not shown here. Identical values can stand only once. Inconclusive results and toxic doses are left out. Rule as the data show it: active = T/C of 150% or more; inactive = T/C below 125%.
Tested on: L1210 leukemia ip in BDF1 mice, survival T/C
Assay: NCI In Vivo Anticancer Drug Screen. Data for tumor model L1210 Leukemia (intraperitoneal) in B6D2F1 (BDF1) mice
Settings: endpoint: mean survival time, higher = longer survival
Outline: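 Survival endpoint. Drug-treated group vs vehicle group, expressed as T divided by C. Tumor passaged by transplantation.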

[1] = dose: 100.0 mg/kg/injection, schedule: Q01DX009 (ip), vehicle: Klucel (hydroxypropylcellulose) (HPC)
[2] = dose: 200.0 mg/kg/injection, schedule: Q01DX009 (ip), vehicle: Klucel (hydroxypropylcellulose) (HPC)
[3] = dose: 400.0 mg/kg/injection, schedule: Q01DX009 (ip), vehicle: Klucel (hydroxypropylcellulose) (HPC)
[4] = dose: 100.0 mg/kg/injection, schedule: Q04DX003 (ip), vehicle: Klucel (hydroxypropylcellulose) (HPC)
[5] = dose: 200.0 mg/kg/injection, schedule: Q04DX003 (ip), vehicle: Klucel (hydroxypropylcellulose) (HPC)
[6] = dose: 400.0 mg/kg/injection, schedule: Q04DX003 (ip), vehicle: Klucel (hydroxypropylcellulose) (HPC)
[7] = dose: 400.0 mg/kg/injection, schedule: Q04DX002 (ip), vehicle: saline with Tween-80

Measured: T/C

CCn1cnc2c(=S)nc[nH]c21
active: dose: 120.0 mg/kg/injection, schedule: Q01DX009 (oral), vehicle: other 151 % of control | dose: 240.0 mg/kg/injection, schedule: Q## X016 (ip), vehicle: other 152 % of control | dose: 240.0 mg/kg/injection, schedule: Q## X024 (ip), vehicle: other 165 % of control | dose: 300.0 mg/kg/injection, schedule: Q## X003 (ip), vehicle: other 162 % of control | dose: 480.0 mg/kg/injection, schedule: Q## X008 (ip), vehicle: other 157 % of control | dose: 480.0 mg/kg/injection, schedule: Q## X016 (ip), vehicle: other 153 % of control
inactive: dose: 4.62 mg/kg/injection, schedule: Q01DX Z (ip), vehicle: carboxymethylcellulose (CMC) 98 % of control | dose: 7.5 mg/kg/injection, schedule: Q01DX005 (ip), vehicle: other 106 % of control | dose: 7.5 mg/kg/injection, schedule: Q01DX009 (ip), vehicle: other 102 % of control | dose: 7.5 mg/kg/injection, schedule: Q01DX009 (sc), vehicle: other 124 % of control | dose: 9.25 mg/kg/injection, schedule: Q01DX Z (ip), vehicle: carboxymethylcellulose (CMC) 108 % of control | dose: 9.25 mg/kg/injection, schedule: Q01DX Z (oral), vehicle: carboxymethylcellulose (CMC) 110 % of control | dose: 15.0 mg/kg/injection, schedule: Q01DX005 (ip), vehicle: other 102 % of control | dose: 15.0 mg/kg/injection, schedule: Q01DX009 (ip), vehicle: other 107 % of control | dose: 15.0 mg/kg/injection, schedule: Q01DX009 (oral), vehicle: other 115 % of control | dose: 15.0 mg/kg/injection, schedule: Q01DX009 (sc), vehicle: other 103 % of control | dose: 18.5 mg/kg/injection, schedule: Q01DX Z (ip), vehicle: carboxymethylcellulose (CMC) 108 % of control | dose: 18.5 mg/kg/injection, schedule: Q01DX Z (oral), vehicle: carboxymethylcellulose (CMC) 110 % of control | dose: 30.0 mg/kg/injection, schedule: Q01DX005 (ip), vehicle: other 116 % of control | dose: 30.0 mg/kg/injection, schedule: Q01DX009 (ip), vehicle: other 117 % of control | dose: 30.0 mg/kg/injection, schedule: Q01DX009 (oral), vehicle: other 115 % of control | dose: 30.0 mg/kg/injection, schedule: Q01DX009 (sc), vehicle: other 119 % of control | dose: 30.0 mg/kg/injection, schedule: Q## X024 (ip), vehicle: other 102 % of control | dose: 31.3 mg/kg/injection, schedule: Q01DX009 (ip), vehicle: saline 100 % of control and 104 % of control | dose: 31.3 mg/kg/injection, schedule: Q01DX010 (ip), vehicle: saline 92 % of control and 95 % of control | dose: 37.0 mg/kg/injection, schedule: Q01DX Z (ip), vehicle: carboxymethylcellulose (CMC) 112 % of control | dose: 37.0 mg/kg/injection, schedule: Q01DX Z (oral), vehicle: carboxymethylcellulose (CMC) 120 % of control | dose: 37.5 mg/kg/injection, schedule: Q## X003 (ip), vehicle: other 100 % of control | dose: 60.0 mg/kg/injection, schedule: Q01DX005 (ip), vehicle: other 123 % of control | dose: 60.0 mg/kg/injection, schedule: Q## X008 (ip), vehicle: other 107 % of control | dose: 60.0 mg/kg/injection, schedule: Q## X016 (ip), vehicle: other 109 % of control | dose: 60.0 mg/kg/injection, schedule: Q## X024 (ip), vehicle: other 114 % of control | dose: 62.5 mg/kg/injection, schedule: Q01DX009 (ip), vehicle: saline 106 % of control and 112 % of control | dose: 62.5 mg/kg/injection, schedule: Q01DX010 (ip), vehicle: saline 107 % of control and 108 % of control | dose: 75.0 mg/kg/injection, schedule: Q01DX001 (ip), vehicle: other 102 % of control | dose: 75.0 mg/kg/injection, schedule: Q01DX001 (sc), vehicle: other 113 % of control | dose: 75.0 mg/kg/injection, schedule: Q## X002 (ip), vehicle: other 98 % of control | dose: 75.0 mg/kg/injection, schedule: Q## X003 (ip), vehicle: other 100 % of control | dose: 120.0 mg/kg/injection, schedule: Q## X008 (ip), vehicle: other 117 % of control | dose: 125.0 mg/kg/injection, schedule: Q01DX010 (ip), vehicle: saline 122 % of control | dose: 150.0 mg/kg/injection, schedule: Q01DX001 (ip), vehicle: other 108 % of control | dose: 150.0 mg/kg/injection, schedule: Q01DX001 (oral), vehicle: other 117 % of control | dose: 150.0 mg/kg/injection, schedule: Q01DX001 (sc), vehicle: other 117 % of control | dose: 150.0 mg/kg/injection, schedule: Q## X002 (ip), vehicle: other 101 % of control | dose: 250.0 mg/kg/injection, schedule: Q01DX009 (ip), vehicle: saline 110 % of control and 124 % of control | dose: 300.0 mg/kg/injection, schedule: Q01DX001 (oral), vehicle: other 119 % of control | dose: 600.0 mg/kg/injection, schedule: Q01DX001 (oral), vehicle: other 123 % of control | dose: 600.0 mg/kg/injection, schedule: Q01DX001 (sc), vehicle: other 121 % of control

Cc1cc(OC(=O)Nc2cc(C(F)(F)F)ccc2Cl)cc(C)c1Cl
inactive: [1] 91 % of control | [2] 104 % of control | [3] 93 % of control

CCCOC1=C(Br)C(=O)c2ccccc2C1=O
inactive: dose: 15.0 mg/kg/injection, schedule: Q01DX001 (ip), vehicle: carboxymethylcellulose (CMC) 98 % of control | dose: 30.0 mg/kg/injection, schedule: Q01DX001 (ip), vehicle: carboxymethylcellulose (CMC) 97 % of control

CCOc1ccccc1NC(=O)Nc1cccc(Cl)c1
inactive: [4] 100 % of control | [2] 94 % of control | [5] 100 % of control | [3] 97 % of control | [6] 104 % of control

O=S(=O)(O)CCN1CCN(CCO)CC1
inactive: dose: 100.0 mg/kg/injection, schedule: Q01DX009 (ip), vehicle: saline 96 % of control | dose: 100.0 mg/kg/injection, schedule: Q04DX003 (ip), vehicle: saline 95 % of control | dose: 200.0 mg/kg/injection, schedule: Q01DX009 (ip), vehicle: saline 91 % of control | dose: 200.0 mg/kg/injection, schedule: Q04DX003 (ip), vehicle: saline 101 % of control | dose: 400.0 mg/kg/injection, schedule: Q01DX009 (ip), vehicle: saline 98 % of control | dose: 400.0 mg/kg/injection, schedule: Q04DX003 (ip), vehicle: saline 97 % of control

O=C(COc1ccc(Cl)cc1)N(c1ccccc1)C1CCCCC1
inactive: [1] 96 % of control | [2] 96 % of control | [3] 94 % of control

Fc1ccc(F)c(-c2c(F)ccc(F)c2F)c1F
inactive: dose: 25.6 mg/kg/injection, schedule: Q04DX002 (ip), vehicle: saline with Tween-80 100 % of control | dose: 64.0 mg/kg/injection, schedule: Q04DX002 (ip), vehicle: saline with Tween-80 113 % of control | dose: 160.0 mg/kg/injection, schedule: Q04DX002 (ip), vehicle: saline with Tween-80 95 % of control | [7] 103 % of control

O=C(c1ccccc1)c1ccsc1C(=O)O
inactive: dose: 6.25 mg/kg/injection, schedule: Q04DX002 (ip), vehicle: saline with Tween-80 94 % of control | dose: 12.5 mg/kg/injection, schedule: Q04DX002 (ip), vehicle: saline with Tween-80 97 % of control | dose: 25.0 mg/kg/injection, schedule: Q04DX002 (ip), vehicle: saline with Tween-80 90 % of control | dose: 200.0 mg/kg/injection, schedule: Q04DX002 (ip), vehicle: saline with Tween-80 101 % of control | [7] 89 % of control

N#C/C(=C/c1ccccc1B(O)O)C(=O)O
inactive: [4] 89 % of control | [5] 93 % of control | [6] 95 % of control

O=C(O)c1ccc(N=Nc2ncc[nH]2)cc1
inactive: dose: 6.25 mg/kg/injection, schedule: Q01DX009 (ip), vehicle: saline with Tween-80 92 % of control | dose: 12.5 mg/kg/injection, schedule: Q01DX009 (ip), vehicle: saline with Tween-80 96 % of control | dose: 25.0 mg/kg/injection, schedule: Q01DX009 (ip), vehicle: saline with Tween-80 96 % of control | dose: 50.0 mg/kg/injection, schedule: Q01DX009 (ip), vehicle: saline with Tween-80 87 % of control

NC(C(=O)O)c1ccco1 (centres undefined)
inactive: [4] 103 % of control | [5] 105 % of control | [6] 101 % of control

CC(=O)OCC1OC(OC(C)=O)C(NC(=O)N(C)C(C)=O)C(OC(C)=O)C1OC(C)=O (centres undefined)
inactive: [4] 100 % of control | [5] 100 % of control | [6] 97 % of control

Reference: PubChem BioAssay AID248 (DTP/NCI, 2004)
